# From patent US20100215618A1, “NOVEL COMPOUNDS - 644” (Arrow Therapeutics Limited, priority 2009, published 2010)
# Key:
# in vitro = in vitro ADME, Canine; settings: dog, MDCK
# Method: Cells used: MDCK (Madin-Darby Canine Kidney) cells, ATCC collection # CCL-34, are used to model the intestinal barrier. Cell culture conditions: cells were cultured at 37° C. in a 5% CO2 environment and split twice a week on seeding at 4×10^5 cells/flask (75 cm^2) on day 1 and 2×10^5 cells/flask on day 4. The culture medium consisted of MEM+Earle's-L Glutamine (Gibco #21090-022) supplemented with 10% Australian Fetal Calf Serum (Sigma #F6178), 2 mM L-Glutamine (Gibco #25030-024) and 1× Non Essential Amino Acids (Gibco #11140-035)
# On day 1, a 24-well plate (Sarstedt, #83.1836.300) was filled with individual 3 lam pore membrane inserts (Millipore, #PITP 012 50). Each plate allows the testing of a cocktail of 3 control compounds and 11 test compounds in duplicate. The wells (outside the inserts) were filled with 500 μl of culture medium.
# A flask of cells was trypsinised and a cell count carried out. Cells were diluted to 1.2×10^5 cells/ml (1×10^5 cells/cm^2) and 500 μl dispensed in each insert on the 24-well plate. The plate was incubated at 37° C. in a 5% CO2 environment for 48 hours.
# On day 3, the culture medium was removed from the wells, then the inserts and is replaced with fresh culture medium in the wells, then the inserts (500111 per well and insert) The plate was incubated at 37° C. in a 5% CO2 environment for 24 hours.
# On day 4, the controls cocktail and test compounds solutions were made up in HBSS buffer (Hank's Balanced Salt Solution, Gibco #14025-050) at 1011M. The final controls and test compounds concentration in the assay was 10 μM, and DMSO concentration maintained at 0.1% (0.3% for the controls cocktail). The controls cocktail was made up of Atenolol (Sigma # A-7655), Dexamethasone (Sigma #D-1756) and Propranolol (Sigma # P-0884).
# A 24-well plate was filled with 500 μl of HBSS buffer per well (assay plate) The culture medium was removed from the wells and inserts. The inserts were washed three times with approximately 500 μl of HBSS buffer. The inserts were transferred to the assay plate. Controls cocktail and test compounds solutions were dispensed inside the inserts (500 μl per insert), in duplicates. The assay plate was incubated at 37° C. in a 5% CO2 environment for 2 hours.
# After 2 hours, the inserts were removed from the assay plate and transferred into a new 24-well plate (wash plate) The assay plate containing the receiver solutions was left aside for later sampling. To measure the mass balance, 150 μl were sampled from each insert (donor solutions) and dispensed into 150 μl of HPLC-grade Acetonitrile (Fisher Scientific) containing an internal standard and 0.05% formic acid.
# The donor solutions were aspirated and discarded from each insert, and the inserts washed once with approximately 500 μl of HBSS buffer. A 24-well plate was filled with 500 μl of HBSS buffer per well (monolayer integrity plate) A Lucifer Yellow (Sigma #L0144) solution was made up at 1001.1M in HBSS buffer. The empty inserts were transferred into the monolayer integrity plate and filled with 500 μl of the Lucifer Yellow solution to determine the cell monolayers integrity and leftover of the solution was kept in a fridge. The plate was incubated at 37° C. in a 5% CO2 environment for 2 hours.
# In the meantime, 150 μl were sampled from the assay plate (receiver solutions) and dispensed into 150 μl of HPLC-grade Acetonitrile containing an internal standard and 0.05% formic acid. A calibration curve was made for each mix of compounds (as appropriate depending on compounds molecular weights) A 10 μM mix of compounds in HBSS buffer was diluted 1:1 in HPLC-grade Acetonitrile containing an internal standard and 0.05% formic acid. A 1:1 mix of HBSS buffer and HPLC-grade Acetonitrile containing an internal standard and 0.05% formic acid was made up and used to make up the calibration curve (2 fold dilutions), with concentrations ranging from 10 μM to 0.078 μM. […]
# [1] = system: HCV replicon cells Huh 9B; type: cell-based; settings: Huh 9B replicon cells, 72 h, methylene blue, total cell area reduced by 50%
compound,measurement,setting,value
"CC(C)(C)OC(=O)N[C@@H](C(=O)N1CCC[C@H]1c1ncc(-c2ccc(-c3ccc(C(=O)Nc4ccc(CN5CCS(=O)(=O)CC5)cc4)cc3)cc2)[nH]1)c1ccccc1 [Example 2, Tert-butyl N-[(1R)-2-[(2S)-2-[5-[4-[4-[[4-[(1,1-dioxo-1,4-thiazinan-4-yl)methyl]phenyl]carbamoyl]phenyl]phenyl]-1H-imidazol-2-yl]pyrrolidin-1-yl]-2-oxo-1-phenyl-ethyl]carbamate]","Papp at 2 h, 10 µM",in vitro,0.2 ×10⁻⁶ cm/s
same,HCV TD50 Replicon,[1],>25 µM
"COC(=O)N[C@H](C(=O)N1CCC[C@H]1c1ncc(-c2ccc(-c3ccc(C(=O)Nc4ccc(CN5CCS(=O)(=O)CC5)cc4)cc3)cc2)[nH]1)C(C)C [Example 3, Methyl N-[(1S)-1-[(2S)-2-[5-[4-[4-[[4-[(1,1-dioxo-1,4-thiazinan-4-yl)methyl]phenyl]carbamoyl]phenyl]phenyl]-1H-imidazol-2-yl]pyrrolidine-1-carbonyl]-2-methyl-propyl]carbamate]","Papp at 2 h, 10 µM",in vitro,4.1 ×10⁻⁶ cm/s
same,HCV TD50 Replicon,[1],>25 µM
"COC(=O)N[C@H](C(=O)N1CCC[C@H]1c1ncc(-c2ccc(-c3ccc(C(=O)Nc4ccc(CN5CCS(=O)(=O)CC5)cc4)cc3)cc2)[nH]1)C(C)(C)C [Example 5, Methyl N-[(1S)-1-[(2S)-2-[5-[4-[4-[[4-[(1,1-dioxo-1,4-thiazinan-4-yl)methyl]phenyl]carbamoyl]phenyl]phenyl]-1H-imidazol-2-yl]pyrrolidine-1-carbonyl]-2,2-dimethyl-propyl]carbamate]","Papp at 2 h, 10 µM",in vitro,2 ×10⁻⁶ cm/s
same,HCV TD50 Replicon,[1],3.9 µM
"COC(=O)N[C@H](C(=O)N1CCC[C@H]1c1ncc(-c2ccc(-c3ccc(C(=O)Nc4ccc(CN5CCS(=O)(=O)CC5)cc4)cc3)cc2)[nH]1)c1ccccc1 [Example 6, Methyl N-[(1S)-2-[(2S)-2-[5-[4-[4-[[4-[(1,1-dioxo-1,4-thiazinan-4-yl)methyl]phenyl]carbamoyl]phenyl]phenyl]-1H-imidazol-2-yl]pyrrolidin-1-yl]-2-oxo-1-phenyl-ethyl]carbamate]","Papp at 2 h, 10 µM",in vitro,0.1 ×10⁻⁶ cm/s
same,HCV TD50 Replicon,[1],>25 µM
"COC(=O)N[C@@H](C(=O)N1CCC[C@H]1c1ncc(-c2ccc(-c3ccc(C(=O)Nc4ccc(CN5CCS(=O)(=O)CC5)cc4)cc3)cc2)[nH]1)c1ccccc1 [Example 7, Methyl N-[(1R)-2-[(2S)-2-[5-[4-[4-[[4-[(1,1-dioxo-1,4-thiazinan-4-yl)methyl]phenyl]carbamoyl]phenyl]phenyl]-1H-imidazol-2-yl]pyrrolidin-1-yl]-2-oxo-1-phenyl-ethyl]carbamate]","Papp at 2 h, 10 µM",in vitro,0.4 ×10⁻⁶ cm/s
same,HCV TD50 Replicon,[1],>25 µM
"CCN(CC)[C@@H](C(=O)N1CCC[C@H]1c1ncc(-c2ccc(-c3ccc(C(=O)Nc4ccc(CN5CCS(=O)(=O)CC5)cc4)cc3)cc2)[nH]1)c1ccccc1 [Example 8, 4-[4-[2-[(2S)-1-[(2R)-2-(diethylamino)-2-phenyl-acetyl]pyrrolidin-2-yl]-1H-imidazol-5-yl]phenyl]-N-[4-[(1,1-dioxo-1,4-thiazinan-4-yl)methyl]phenyl]benzamide]","Papp at 2 h, 10 µM",in vitro,1.2 ×10⁻⁶ cm/s
same,HCV TD50 Replicon,[1],>25 µM
"CN(C)[C@@H](C(=O)N1CCC[C@H]1c1ncc(-c2ccc(-c3ccc(C(=O)Nc4ccc(CN5CCS(=O)(=O)CC5)cc4)cc3)cc2)[nH]1)c1ccccc1 [Example 9, 4-[4-[2-[(2S)-1-[(2R)-2-(dimethylamino)-2-phenyl-acetyl]pyrrolidin-2-yl]-1H-imidazol-5-yl]phenyl]-N-[4-[(1,1-dioxo-1,4-thiazinan-4-yl)methyl]phenyl]benzamide]","Papp at 2 h, 10 µM",in vitro,0.9 ×10⁻⁶ cm/s
same,HCV TD50 Replicon,[1],>25 µM
"COC(=O)N[C@@H](CC(C)C)C(=O)N1CCC[C@H]1c1ncc(-c2ccc(-c3ccc(C(=O)Nc4ccc(CN5CCS(=O)(=O)CC5)cc4)cc3)cc2)[nH]1 [Example 14, Methyl N-[(1S)-1-[(2S)-2-[5-[4-[4-[[4-[(1,1-dioxo-1,4-thiazinan-4-yl)methyl]phenyl]carbamoyl]phenyl]phenyl]-1H-imidazol-2-yl]pyrrolidine-1-carbonyl]-3-methyl-butyl]carbamate]","Papp at 2 h, 10 µM",in vitro,1.2 ×10⁻⁶ cm/s
same,HCV TD50 Replicon,[1],>25 µM
"CC[C@H](C)[C@H](NC(=O)OC)C(=O)N1CCC[C@H]1c1ncc(-c2ccc(-c3ccc(C(=O)Nc4ccc(CN5CCS(=O)(=O)CC5)cc4)cc3)cc2)[nH]1 [Example 16, Methyl N-[(1S,2S)-1-[(2S)-2-[5-[4-[4-[[4-[(1,1-dioxo-1,4-thiazinan-4-yl)methyl]phenyl]carbamoyl]phenyl]phenyl]-1H-imidazol-2-yl]pyrrolidine-1-carbonyl]-2-methyl-butyl]carbamate]","Papp at 2 h, 10 µM",in vitro,1 ×10⁻⁶ cm/s
same,HCV TD50 Replicon,[1],>25 µM
"COC(=O)N[C@H](C(=O)N1CCC[C@@H]1c1ncc(-c2ccc(-c3ccc(C(=O)Nc4ccc(CN5CCS(=O)(=O)CC5)cc4)cc3)cc2)[nH]1)C(C)C [Example 20, Methyl N-[(1S)-1-[(2R)-2-[5-[4-[4-[[4-[(1,1-dioxo-1,4-thiazinan-4-yl)methyl]phenyl]carbamoyl]phenyl]phenyl]-1H-imidazol-2-yl]pyrrolidine-1-carbonyl]-2-methyl-propyl]carbamate]","Papp at 2 h, 10 µM",in vitro,0.4 ×10⁻⁶ cm/s
"CCCS(=O)(=O)N1CCN(Cc2ccc(NC(=O)c3ccc(-c4ccc(-c5cnc([C@@H]6CCCN6C(=O)[C@@H](NC(=O)OC)C(C)C)[nH]5)cc4)cc3)cc2)CC1 [Example 40, Methyl N-[(1S)-2-methyl-1-[(2S)-2-[5-[4-[4-[[4-[(4-propylsulfonylpiperazin-1-yl)methyl]phenyl]carbamoyl]phenyl]phenyl]-1H-imidazol-2-yl]pyrrolidine-1-carbonyl]propyl]carbamate]","Papp at 2 h, 10 µM",in vitro,0.7 ×10⁻⁶ cm/s
"COC(=O)N[C@H](C(=O)N1CCOC[C@H]1c1ncc(-c2ccc(-c3ccc(C(=O)Nc4ccc(CN5CCS(=O)(=O)CC5)cc4)cc3)cc2)[nH]1)c1ccccc1 [Example 47, Methyl N-[(1S)-2-[(3R)-3-[5-[4-[4-[[4-[(1,1-dioxo-1,4-thiazinan-4-yl)methyl]phenyl]carbamoyl]phenyl]phenyl]-1H-imidazol-2-yl]morpholin-4-yl]-2-oxo-1-phenyl-ethyl]carbamate]","Papp at 2 h, 10 µM",in vitro,0.1 ×10⁻⁶ cm/s
same,HCV TD50 Replicon,[1],>25 µM
"COC(=O)N[C@H](C(=O)N1CCC[C@H]1c1ncc(-c2ccc(-c3ccc(C(=O)Nc4ccc(CN5CCS(=O)(=O)CC5)cc4)cc3)c(C)c2)[nH]1)C(C)C [Example 54, Methyl N-[(1S)-1-[(2S)-2-[5-[4-[4-[[4-[(1,1-dioxo-1,4-thiazinan-4-yl)methyl]phenyl]carbamoyl]phenyl]-3-methyl-phenyl]-1H-imidazol-2-yl]pyrrolidine-1-carbonyl]-2-methyl-propyl]carbamate]","Papp at 2 h, 10 µM",in vitro,6 ×10⁻⁶ cm/s
same,HCV TD50 Replicon,[1],>25 µM
